# Columns and labels:
# [1] = test system: women; conditions: compared to non-treated women of the same age, the estrogen-alone figure is for women with prior hysterectomy; cited from earlier work
# [2] = test system: female rats; experiment: Tear volume, modified Schirmer's test; type: in vivo, Sprague-Dawley rats
# Description: (§1) Female rats of 9 months of age were ovariectomized and immediately supplemented with 1.5 mg of 17β-estradiol in three, separate 90-day time release pellets until 18 months. Three experimental groups were used with ovaries excised from rats in treatment […] (FIG. 1). Group 1 underwent a sham ovariectomy and was implanted with placebo pellet, Group 2 underwent an ovariectomy and was implanted with placebo pellet, and Group 3 underwent an ovariectomy and was implanted with E2 pellet. The three groups had tear breakup time and tear volume tested. […] The time lapse between the last blink and the first randomly distributed dry spot on the cornea using a portable slit lamp was recorded. The process was repeated 3 times for each subject and the results recorded (FIG. 2). […] Rats received 0.5 uL Fluress onto the eye, then the eye was manually blinked 3 times, and the modified Schirmer's strip was placed in the upper fornix for 5 minutes for assessment of tear volume and the volume was recorded (FIG. 3).
# (§2) Female Sprague-Dawley rats, age 15 months, were subcutaneously implanted with placebo pellets and E2 rats received pellets containing 1.5 mg of 17β-estradiol in a 90-day time-release matrix. […] Serum E2 levels were measured from blood collected prior to randomization to treatment groups and again at time of euthanasia. […]
# [3] = test system: female rats; experiment: Tear breakup time (TBUT), Fluress and slit lamp; type: in vivo, Sprague-Dawley rats
# Description: as §1, §2
# [4] = Serum E2 levels; type: in vivo, Sprague-Dawley rats; conditions: Example 2: rats at 18 months after 1.5 mg 90-day pellet implanted at 15 months; compared to Intact (placebo) rats
# Description: Female Sprague-Dawley rats, age 15 months, were subcutaneously implanted with placebo pellets and E2 rats received pellets containing 1.5 mg of 17β-estradiol in a 90-day time-release matrix. Both groups received treatment until they reached 18 months of age. Serum E2 levels were measured from blood collected prior to randomization to treatment groups and again at time of euthanasia. […] Serum E2 levels of rats prior to randomization at 15 months of age (Pre) and two weeks before gland excision, at 18 months of age (Post). […] Also, Tear Volume Assessment and Tear Break-up Time both have been examined in the rats. […] TBUT was also altered by estrogen treatment with E2 rats having a significant reduction in time to first tear disruption compared to Intact rats (16.4±1.1 sec and 33.7±1.9 sec, respectively; p<0.001) (FIG. 5). Tear volume was measured in 18 month old female rats during 3 months of E2 or placebo supplementation. […] (B) Tear break up time was also measured in rats receiving placebo or E2 treatment using fluorescein sodium (0.25%).
# [5] = Example 1: rats ovariectomized at 9 months, 1.5 mg 17β-estradiol 90-day pellets until 18 months, compared to control groups 1 and 2
# [6] = Example 2: post-menopausal rats at 18 months, 3 months of E2 supplementation, p<0.001 vs Intact rats
Compound,increase of KCS [1] [%],"tear volume [2, 5]","tear volume [2, 6] [mm]","tear break up time [3, 5]","TBUT, time to first tear disruption [3, 6] [s]",serum E2 levels [4]
estrogen,~70,–,–,–,–,–
"C[C@]12CC[C@@H]3c4ccc(O)cc4CC[C@H]3[C@@H]1CC[C@@H]2O [E2, 17β-estradiol]",–,reduced tear volume,7.4±0.58,shorter tear break up time,16.4 ± 1.1,significantly elevated

# Source: US20120079612A1, “Dry eye animal model” (West Virginia University, priority 2010, published 2012)
